One assay has as its target PRMT5 MTA (Homo sapiens (Human), UniProt O14744). The assay is described as follows: PRMT5 inhibitory activity assay in vitro, enzyme solution with MTA ([3H]-SAM Flashplate). The settings on record: MTA 2.0 um; read-out: Enzyme activity inhibition rate PRMT5 MTA (2.0 um) IC50 (nm). Format: biochemical. An excerpt: Biological Test Example 1 PRMT5 Inhibitory Activity Assay In Vitro
PRMT5 (Active Motiv, catalog number 31921), [^3H]—SAM (Perkin Elmer, catalog number NET155V001MC), SAM (Sigma, catalog number A7007), MTA (Sigma, catalog number D5011), SAH (Sigma, catalog number A9384), 384-well plate (Perkin Elmer, catalog number 6007299), Echo 550 (manufacturer: Labcyte, model: Echo 550), 384-well Flashplate (manufacturer: Perkin Elmer, model: SMP410A001PK)
• (1) 1× Assay buffer (modified Tris buffer) was configured. • (2) Dilute compound: the compound was dissolved in 100% DMSO and the compound solution was added to a 384-well plate using Echo 550. • (3) Configure enzyme solution: PRMT5 was added to 1× assay buffer to prepare enzyme solution 1; PRMT5 and MTA was added to 1× assay buffer to prepare enzyme solution 2. • (4) Configure substrate solution: peptide segments and [3H]—SAM was added to 1× assay buffer. • (5) 15 μL of enzyme solution was added to the 384-well plate, and 15 μL of 1× assay buffer was added to the negative control well, and incubated at room temperature for 30 minutes. • (6) 15 μL of substrate solution was added to each well, and incubated at room temperature for 90 minutes. • (7) Configure termination reaction solution: pre-cooled SAM was added to 1× assay buffer. • (8) 10 μL of termination reaction solution was added to each well to terminate the reaction. • (9) 25 μL/well of the mixed solution was transferred to Flashplate and incubated for 1 hour at room temperature. • (10) the Flashplate three was washed times with dH2O+0.1% Tween-20 solution. • (11) the radiometric values was readed with Microbeta.
• (1) The raw data were converted to % inhibition according to Equation 1.
%inhibition=(Max−Signal)/(Max−Min)*100 Equation 1: • (2) the % inhibition data were entered into XL-Fit Equation 2 to obtain IC50 value:
Y=Bottom+(Top−Bottom)/(1+(IC50/X)[…]) Equation 2: • wherein, Y is the % inhibition, and X is the concentration of the compound.

A further assay deals with HCT116 MTAP WT cells. The assay is described as follows: Proliferation inhibition of HCT116 cells in vitro (CellTiter Glo, 6 days). It is filed as cell-based. The settings on record: Homo sapiens, HCT-116, 144 h, read-out: Cell proliferation inhibition rate HCT116 MTAP WT IC50 (nm). (In general: Cellular ATP, detected with luciferase, serves as a proxy for viable cell number.)

Assay [1] deals with HCT116-MTAP-KO (MTAP null) cells. The assay is described as follows: Proliferation inhibition of HCT116 MTAP-KO cells in vitro (CellTiter Glo, 6 days). The note with it: 144 h, read-out: Cell proliferation inhibition rate HCT116-MTAP null IC50 (nm). Format: cell-based.

Each structure is given as a SMILES string. Read-outs that look alike come from different tables or passages of the source.

In US20240376126A1, “PRMT5 INHIBITOR AND THE USE THEREOF” (CYTOSINLAB THERAPEUTICS CO., LTD., priority 2022, published 2024) one finds IC50 data, which are given here for 24 compounds.

Sequence of PRMT5 MTA (O14744 whole entry, looked up): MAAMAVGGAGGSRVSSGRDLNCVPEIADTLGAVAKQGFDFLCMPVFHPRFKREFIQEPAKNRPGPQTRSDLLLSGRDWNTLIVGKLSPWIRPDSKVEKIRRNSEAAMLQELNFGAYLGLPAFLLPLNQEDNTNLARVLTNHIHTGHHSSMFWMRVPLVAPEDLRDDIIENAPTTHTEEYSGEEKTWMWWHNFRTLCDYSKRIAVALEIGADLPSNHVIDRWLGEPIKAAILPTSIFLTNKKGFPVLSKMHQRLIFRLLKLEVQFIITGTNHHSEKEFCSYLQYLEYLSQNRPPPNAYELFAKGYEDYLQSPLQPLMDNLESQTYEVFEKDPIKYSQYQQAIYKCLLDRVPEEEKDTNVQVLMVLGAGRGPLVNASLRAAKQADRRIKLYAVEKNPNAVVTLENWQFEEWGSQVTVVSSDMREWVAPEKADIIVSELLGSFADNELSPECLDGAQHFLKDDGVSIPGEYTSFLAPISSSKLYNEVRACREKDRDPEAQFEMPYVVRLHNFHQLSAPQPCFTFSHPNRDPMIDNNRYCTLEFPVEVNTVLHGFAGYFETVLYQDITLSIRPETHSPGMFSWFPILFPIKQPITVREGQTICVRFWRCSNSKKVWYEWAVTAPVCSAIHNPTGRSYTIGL
Sequence of PRMT5 MTA (Q9BQA1 whole entry partner, looked up): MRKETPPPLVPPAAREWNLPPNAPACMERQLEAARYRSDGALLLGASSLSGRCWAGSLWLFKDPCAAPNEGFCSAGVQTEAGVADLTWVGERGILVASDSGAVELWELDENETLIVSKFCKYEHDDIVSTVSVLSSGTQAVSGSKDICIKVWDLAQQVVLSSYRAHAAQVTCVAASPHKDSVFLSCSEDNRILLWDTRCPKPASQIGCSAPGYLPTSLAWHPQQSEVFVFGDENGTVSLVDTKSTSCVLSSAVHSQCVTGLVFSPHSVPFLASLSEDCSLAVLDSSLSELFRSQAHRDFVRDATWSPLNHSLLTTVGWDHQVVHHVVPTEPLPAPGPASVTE

Regarding `CC(c1ncccn1)N(Cc1cn2ccccc2n1)C(=O)c1ccc2nc(N)c3c(c2c1)CCC3` (centres unmarked) [Example 1, 4-Amino-N-(pyrazolo[1,5-a]pyridin-2-ylmethyl)-N-(1-(pyrimidin-2-yl)ethyl)-2,3-dihydro-1H-cyclopentadieno[c]quinolin-8-carboxamide], the IC50 at PRMT5 MTA is 5.1 nM; in the assay with HCT116 MTAP WT cells, 1000 to 10000 nM; in assay [1] it was less than 100 nM.
The corresponding values for `CCN(Cc1cn2ccccc2n1)C(=O)c1cc2c(cc1F)nc(N)c1cnn(C)c12` [Example 2] are 3 nM, 1000 to 10000 nM and less than 100 nM.
For `CC(C)CN(Cc1cn2cc(C(F)(F)F)ccc2n1)C(=O)c1ccc2nc(N)c3cnn(C)c3c2c1` [Example 4] the same measures were 1.7 nM, 1000 to 10000 nM and less than 100 nM.
For `COCC(C1CC1)N(Cc1nc2ccccc2[nH]1)C(=O)c1ccc2nc(N)c(C)cc2c1` (centres unmarked) [Example 127] the same measures were 3.7 nM, 1000 to 10000 nM and less than 100 nM.
Consider `CC(C)CN(Cc1nc2ccc(C(F)(F)F)cc2[nH]1)C(=O)c1ccc2nc(N)c3cnn(C)c3c2c1` [Example 132], for which the IC50 on PRMT5 MTA is 4.4 nM; in the assay with HCT116 MTAP WT cells, 1000 to 10000 nM; in assay [1], less than 100 nM.
The corresponding values for `COCC(C1CC1)N(Cc1nc2ccccc2s1)C(=O)c1ccc2nc(N)c3c(c2c1)CCC3` (centres unmarked) [Example 147] are 2.9 nM, 1000 to 10000 nM and 100 to 1000 nM.
Regarding `Cc1cc2cc(C(=O)N(Cc3nc4ccccc4s3)C34CC(C3)C4)ccc2nc1N` [Example 148], the IC50 at PRMT5 MTA amounted to 2.6 nM.
With `COCC(C)N(Cc1cn2cc(C(F)(F)F)ccc2n1)C(=O)c1cc2c(cc1F)nc(N)c1c(C)ncn12` (centres unmarked) [Example 285, 4-Amino-7-fluoro-N-(1-methoxypropan-2-yl)-3-methyl-N-((6-(trifluoromethyl)imidazolo[1,2-a]pyridin-2-yl)methyl)imidazo[1,5-a]quinoxalin-8-carboxamide], the IC50 was 100 to 1000 nM in the assay with HCT116 MTAP WT cells and less than 100 nM in assay [1] (HCT116-MTAP null).
The corresponding values for `COC1CCC1N(Cc1cn2cc(C(F)(F)F)ccc2n1)C(=O)c1ccc2nc(N)c3c(C)ncn3c2c1` (centres unmarked) [Example 286] are 1000 to 10000 nM and less than 100 nM.
The corresponding values for `COCC(C)N(Cc1cn2cc(C(F)(F)F)ccc2n1)C(=O)c1ccc2nc(N)c3c(C)ncn3c2c1` (centres unmarked) [Example 288] are 1000 to 10000 nM and less than 100 nM.
The corresponding values for `Cc1cnn2c1c(N)nc1ccc(C(=O)N(Cc3cn4cc(C(F)(F)F)ccc4n3)CC(C)C)cc12` [Example 290] are 1000 to 10000 nM and less than 100 nM.
In the case of `Cc1ncn2c1c(N)nc1ccc(C(=O)N(c3cnn(C)c3)C(C)c3cn4cc(C(F)(F)F)ccc4n3)cc12` (centres unmarked) [Example 292], the values for the IC50 (with HCT116 MTAP WT cells; in assay [1] (HCT116-MTAP null)) were 1000 to 10000 nM and 100 to 1000 nM, respectively.
The corresponding values for `Cc1ncn2c1c(N)nc1ccc(C(=O)N(Cc3cn4cc(C(F)(F)F)ccc4n3)c3cnn(C)c3)cc12` [Example 293] are 1000 to 10000 nM and 100 to 1000 nM.
For `COC1CCCC1N(Cc1cn2cc(C(F)(F)F)ccc2n1)C(=O)c1ccc2nc(N)c3c(C)ncn3c2c1` (centres unmarked) [Example 294] the same measures were 1000 to 10000 nM and less than 100 nM.
The corresponding values for `Cc1ncn2c1c(N)nc1ccc(C(=O)N(CC(C)C)C(C)c3cn4cc(C(F)(F)F)ccc4n3)cc12` (centres unmarked) [Example 296] are 1000 to 10000 nM and 100 to 1000 nM.
`Cc1ncn2c1c(N)nc1ccc(C(=O)N(Cc3cn4ccccc4n3)CC(C)C)cc12` [Example 297]: the results for the IC50 (in the assay with HCT116 MTAP WT cells; in assay [1] (HCT116-MTAP null)) were 1000 to 10000 nM and less than 100 nM, respectively.
The corresponding values for `CCN(C(=O)c1ccc2nc(N)c3c(C)ncn3c2c1)C(C)c1cn2ccccc2n1` (centres unmarked) [Example 298] are 1000 to 10000 nM and 100 to 1000 nM.
The corresponding values for `Cc1ncn2c1c(N)nc1ccc(C(=O)N(Cc3cn4cc(C(F)(F)F)ccc4n3)CC(C)C)cc12` [Example 299] are 1000 to 10000 nM and less than 100 nM.
The corresponding values for `Cc1ncc2c(N)nc3ccc(C(=O)N(Cc4cn5cc(C(F)(F)F)ccc5n4)c4c(F)cnn4C)cc3n12` [Example 300] are 1000 to 10000 nM and less than 100 nM.
For the compound `Cc1ncc2c(N)nc3cnc(C(=O)N(Cc4cn5cc(C(F)(F)F)ccc5n4)c4c(F)cnn4C)cc3n12` [Example 302], the IC50 is 100 to 1000 nM in the assay on HCT116 MTAP WT cells and less than 100 nM in assay [1] (HCT116-MTAP null).
Turning to `Cc1ncc2c(N)nc3cc(F)c(C(=O)N(Cc4cn5cc(C(F)F)ccc5n4)c4c(F)cnn4C)cc3n12` [Example 303], the IC50 in the assay with HCT116 MTAP WT cells is 100 to 1000 nM; in assay [1] (HCT116-MTAP null) it was less than 100 nM.
The corresponding values for `CC(c1ncccn1)N(Cc1nc2cnccc2s1)C(=O)c1ccc2nc(N)c3c(c2c1)COC3` (centres unmarked) [Example 304, 4-Amino-N-(1-(pyrimidin-2-yl)ethyl)-N-(thiazolo[4,5-c]pyridin-2-ylmethyl)-1,3-dihydrofurano[3,4-c]quinolin-8-carboxamide] are 100 to 1000 nM and less than 100 nM.
With `Cc1nn(C)cc1N(Cc1cn2cc(C(F)(F)F)ccc2n1)C(=O)c1ccc2nc(N)c3c(c2c1)CO[C@@H]3C` [Example 305, (3R)-4-Amino-N-(1,3-dimethylpyrazol-4-yl)-3-methyl-N-[[6-(trifluoromethyl)imidazo[1,2-a]pyridin-2-yl]methyl]-1,3-dihydrofurano[3,4-c]quinolin-8-carboxamide], the IC50 in the assay on HCT116 MTAP WT cells was 1000 to 10000 nM; in assay [1] (HCT116-MTAP null) it was less than 100 nM.
For `Cc1nn(C)cc1N(Cc1cn2cc(C(F)(F)F)ccc2n1)C(=O)c1ccc2nc(N)c3c(c2c1)COC3C` (centres unmarked) [Example 313, 4-Amino-N-(1,3-dimethylpyrazol-4-yl)-3-methyl-N-[[6-(trifluoromethyl)imidazolo[1,2-a]pyridin-2-yl]methyl]-1,3-dihydrofurano[3,4-c]quinolin-8-carboxamide] the same measures were 1000 to 10000 nM and less than 100 nM.
